The values below come from US11702630B2, “In vitro methods of differentiating stem cells into neurons and neurons generated using the same” (The J. David Gladstone Institutes, a testamentary trust …, priority 2016, dated 2023).

Type in all cases: cell-based, human
In data set [1] the test system is hPSCs. Put plainly: Flow cytometry of CHX10 at day 17 of V2a interneuron differentiation. How it is done: hPSCs were seeded in mTeSR supplemented with 10 μM ROCK inhibitor and dual SMAD inhibitors 0.2 μM LDN193189 and 10 μM SB431542 ([…], Cambridge, Mass.) at 5,000-100,000 cells/cm^2 onto 24-well plates coated with Matrigel. On day 3, medium was changed to mTeSR supplemented with dual SMAD inhibitors only. On day 5, the base medium was switched to neural induction medium (DMEM F:12 (Corning), N2 supplement (Life Technologies, Carlsbad, Calif.), L-Glutamine (VWR), 2 μg/ml heparin (Sigma Aldrich, St. Louis, Mo.), non-essential amino acids (VWR), penicillin-streptomycin (VWR) supplemented with fresh 0.4 μg/ml ascorbic acid (Sigma Aldrich) and 10 ng/ml brain derived neurotrophin factor (BDNF, R&D Systems, Minneapolis, Minn.)) supplemented with dual SMAD inhibitors and 10 nM-10 μM retinoic acid (Sigma Aldrich). […] Medium was changed every 2 to 3 days throughout the differentiation, with fresh supplements added each time for up to 17 days.
In general terms: In flow cytometry, cells or beads pass a laser one at a time.

Data set [2] concerns hPSCs. Put plainly: Total number of cells and yield of CHX10+ cells per input pluripotent cell at day 17. To be noted: for number of viable cells per 24-well culture at day 17: 100 nM RA and 100 nM pur, FIG. 2B. How it is done: hPSCs were seeded in mTeSR supplemented with 10 μM ROCK inhibitor and dual SMAD inhibitors 0.2 μM LDN193189 and 10 μM SB431542 (StemGent, Cambridge, Mass.) at 5,000-100,000 cells/cm^2 onto 24-well plates coated with Matrigel. On day 3, medium was changed to mTeSR supplemented with dual SMAD inhibitors only. On day 5, the base medium was switched to neural induction medium (DMEM F:12 (Corning), N2 supplement (Life Technologies, Carlsbad, Calif.), L-Glutamine (VWR), 2 μg/ml heparin (Sigma Aldrich, St. Louis, Mo.), non-essential amino acids (VWR), penicillin-streptomycin (VWR) supplemented with fresh 0.4 μg/ml ascorbic acid (Sigma Aldrich) and 10 ng/ml brain derived neurotrophin factor (BDNF, R&D Systems, Minneapolis, Minn.)) supplemented with dual SMAD inhibitors and 10 nM-10 μM retinoic acid (Sigma Aldrich). On day 7, dual SMAD inhibition was ceased and 10 nM-10 μM retinoic acid, 10 nM-10 μM pur (EMD Millipore, Darmstast, Germany) and 100 nM-10 μM N—[N-(3,5-Difluorophenacetyl)-L-alanyl]-S-phenylglycine t-butyl ester (DAPT) were added to the neural induction medium. Medium was changed every 2 to 3 days throughout the differentiation, with fresh supplements added each time for up to 17 days.

The subject of data set [3] is pluripotent stem cells. Briefly: Wnt activation in the V2a interneuron protocol, % CHX10+ cells. To be noted: FIG. 20A. The procedure: (§1) For the “D0 CHIR treated” group, the GSK3 inhibitor, 2 μM CHIR990201 was added into the V2a interneuron protocol from day 0 to day 7. For the “D-2 CHIR treated” group, pluripotent stem cells were initially seeded at a higher density (120 k cells/cm^2) in the presence of 2 μM CHIR990201 for two days. The cells were then dissociated and re-plated at 25 k/cm^2 to begin the V2a interneuron protocol. CHIR990201 was kept in the media composition from day 0 to day 7. Further culture and analysis proceeded as previously described.

Data set [4] deals with pluripotent stem cells. Put plainly: Wnt activation in the V2a interneuron protocol, gene expression of cervical and thoracic markers. The following applies: FIG. 20B. How it is done: Samples were lysed and RNA was extracted using the E.Z.N.A. Total RNA Kit (Omega Biotek, Norcross, Ga.). RNA (500 ng) was reverse-transcribed into cDNA using the iScript cDNA synthesis kit (BioRad, Hercules, Calif.). RT-qPCR was performed using Fast SYBR Green Master Mix (Life Technologies) and the primers listed in Table 1 below were annealed at 61° C. on the Step One Plus Real-Time PCR System (Life Technologies). Fold changes were calculated using the ΔΔCt method. For high throughput gene expression analysis, Fluidigm was used. Preamplified cDNA samples and primers were mixed with Sso Fast EvaGreen Supermix (BioRad) then loaded onto a 96.96 Dynamic Array integrated fluidic circuit (IFC) and ran on a BioMark HD system.
as §1

[5] abbreviates: 2 μM CHIR added at D0, day 0 to day 7.
Where [6] appears, read: 2 μM CHIR added at D-2 and passage with CHIR, kept to day 7.

In the case of `c1ccc2c(Oc3nc(Nc4ccc(N5CCOCC5)cc4)c4ncn(C5CCCCC5)c4n3)cccc2c1` [pur, 9-Cyclohexyl-N-[4-(4-morpholinyl)phenyl]-2-(1-naphthalenyloxy)-9H-purin-6-amine], the “Chx10+ cells after 17 days of differentiation” value in data set [1] (pur 100 nM from day 7, 100 nM RA and 5 μM DAPT, FIG. 1D) was roughly 30%.
Regarding `C[C@H](NC(=O)Cc1cc(F)cc(F)c1)C(=O)NC(C(=O)OC(C)(C)C)c1ccccc1` (some centres unmarked) [DAPT], the “CHX10+ population at day 17” value is on record as roughly 15% in data set [1] (DAPT 5 μM from day 7, RA and pur 100 nM each, FIG. 1E); roughly 15% in data set [1] (DAPT 1 μm from day 7, RA and pur 100 nM each, FIG. 1E). The “increase in number of CHX10+ cells per input pluripotent cell” value in data set [2] (1 μM DAPT compared with 5 μM DAPT, FIG. 2C) is roughly 50%. The “number of viable cells per 24-well culture at day 17” value in data set [2] (DAPT 1 μM) came to 4.40 million cells; in data set [2] (DAPT 5 μM), 2.85 million cells.
Regarding `CC1=C(/C=C/C(C)=C/C=C/C(C)=C/C(=O)O)C(C)(C)CCC1` [RA, retinoic acid], the “CHX10+ population at day 17” value in data set [1] (RA 100 nM starting at day 5, pur 1 μM and DAPT 5 μM from day 7, FIG. 1C) was roughly 6%.
`Cc1cnc(-c2cnc(NCCNc3ccc(C#N)cn3)nc2-c2ccc(Cl)cc2Cl)[nH]1` [CHIR, 6-[[2-[[4-(2,4-Dichlorophenyl)-5-(5-methyl-1H-imidazol-2-yl)-2-pyrimidinyl]amino]ethyl]amino]-3-pyridinecarbonitrile]: the entries for the “% of CHX10+ cells” value in data set [3] (setting [5]) and in data set [3] (setting [6]) were “did not decrease” and “greatly increased”, respectively. Further, the “cervical and thoracic gene expression” value is given as “slightly increased” in data set [4] (setting [5]) and “increased” in data set [4] (setting [6]).
